Reference: patent US12336981B2, “Compounds and compositions for the inhibition of NAMPT” (Valo Health, Inc., priority 2010, dated 2025)
Read-outs that look alike come from different tables or passages of the source.

How the values were obtained:
[1] = target: T1, NAMPT (Homo sapiens, UniProt P43490); assay: Biochemical inhibition assay: NAMPT enzymatic reaction, NMN quantified by mass spectrometry; conditions: read-out: Biochem IC50
T1 construct: His tag; host or cells: E. coli
How it was run: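 Inhibition of E. coli-expressed His-tagged human NAMPT, measured as NMN formation by mass spectrometry after a 30 min room-temperature reaction containing 1 μM NAM, 100 μM PRPP and 2.5 mM ATP.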

[2] = system: A2780 cells; assay: In-vitro cell proliferation assay (SRB), A2780 cells; assay type: cell-based; conditions: Homo sapiens, A2780, 72 h, A2780 cells, 72 hours, read-out: A2780 IC50
How it was run: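 Cells were plated overnight at 37° C., 5% CO2, then exposed to serially diluted compounds (0.1% DMSO final) for 72 hours. Viable cells were measured by sulforhodamine B staining after TCA fixation, read at 570 nm; media-only background was subtracted before % inhibition was calculated.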

T1 sequence (P43490 whole entry): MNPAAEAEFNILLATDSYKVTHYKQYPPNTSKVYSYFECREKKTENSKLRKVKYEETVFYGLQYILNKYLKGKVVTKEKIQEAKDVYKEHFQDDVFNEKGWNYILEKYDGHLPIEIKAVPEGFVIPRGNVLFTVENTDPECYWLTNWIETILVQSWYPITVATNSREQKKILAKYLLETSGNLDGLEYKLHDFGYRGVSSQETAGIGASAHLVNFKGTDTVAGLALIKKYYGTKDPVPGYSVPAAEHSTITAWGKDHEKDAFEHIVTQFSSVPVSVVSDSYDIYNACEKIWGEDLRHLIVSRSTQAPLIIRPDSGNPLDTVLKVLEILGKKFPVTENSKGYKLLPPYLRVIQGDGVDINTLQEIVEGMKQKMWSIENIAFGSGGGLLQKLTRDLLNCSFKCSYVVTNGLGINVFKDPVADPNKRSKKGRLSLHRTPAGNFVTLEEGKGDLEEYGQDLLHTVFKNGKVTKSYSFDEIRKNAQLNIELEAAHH

SMILES | IC50 ([1]; NAMPT enzymatic assay) [nM] | IC50 ([2]; SRB) [nM] | IC50 ([1]; NAMPT enzymatic reaction) [nM] | IC50 ([2]; SRB assay) [nM]
O=C(NCc1ccc(S(=O)(=O)c2cc(F)cc(C(F)(F)F)c2)cc1)c1cnc2[nH]ncc2c1 [N-[(4-{[3-fluoro-5-(trifluoromethyl)benzene]sulfonyl}phenyl)methyl]-1H-pyrazolo[3,4-b]pyridine-5-carboxamide] | 11.2 | 3.45 |  | 
O=C(NCc1ccc(S(=O)(=O)c2cc(F)cc(C(F)(F)F)c2)cc1)c1cc2ccncc2s1 [N-[(4-{[3-fluoro-5-(trifluoromethyl)benzene]sulfonyl}phenyl)methyl]thieno[2,3-c]pyridine-2-carboxamide] | 10.2 | 3.1 |  | 
CC(C)COc1ccc(S(=O)(=O)c2ccc(CNC(=O)c3cnc4[nH]ncc4c3)cc2)cc1 [N-[(4-{[4-(2-methylpropoxy)benzene]sulfonyl}phenyl)methyl]-1H-pyrazolo[3,4-b]pyridine-5-carboxamide] | 26.3 | 16.2 |  | 
CCOc1ccc(-c2ccc(S(=O)(=O)c3ccc(CNC(=O)c4cc5cnccc5[nH]4)cc3)cc2)cc1 [N-[(4-{[4-(4-ethoxyphenyl)benzene]sulfonyl}phenyl)methyl]-1H-pyrrolo[3,2-c]pyridine-2-carboxamide] | 9 | 9 |  | 
O=C(NCc1ccc(S(=O)(=O)c2ccc(C(F)F)c(F)c2)cc1)c1cnc2nccn2c1 [N-[(4-{[4-(difluoromethyl)-3-fluorobenzene]sulfonyl}phenyl)methyl]imidazo[1,2-a]pyrimidine-6-carboxamide] | 8.2 | 27.9 |  | 
CN(C)C(=O)c1ccc(S(=O)(=O)c2ccc(CNC(=O)c3cc4cnccc4[nH]3)cc2)cc1 [N-[(4-{[4-(dimethylcarbamoyl)benzene]sulfonyl}phenyl)methyl]-1H-pyrrolo[3,2-c]pyridine-2-carboxamide] |  |  | 27 | 14
CCOCc1ccc(S(=O)(=O)c2ccc(CNC(=O)c3cnc4[nH]ncc4c3)cc2)cc1 [N-[(4-{[4-(ethoxymethyl)benzene]sulfonyl}phenyl)methyl]-1H-pyrazolo[3,4-b]pyridine-5-carboxamide] | 26.6 | 12.8 |  | 
CCNC(=O)c1ccc(S(=O)(=O)c2ccc(CNC(=O)c3cnc4[nH]ncc4c3)cc2)cc1 [N-[(4-{[4-(ethylcarbamoyl)benzene]sulfonyl}phenyl)methyl]-1H-pyrazolo[3,4-b]pyridine-5-carboxamide] | 103 | 96.8 |  | 
O=C(NCc1ccc(S(=O)(=O)c2ccc(CO)cc2)cc1)c1cc2ccncc2s1 [N-[(4-{[4-(hydroxymethyl)benzene]sulfonyl}phenyl)methyl]thieno[2,3-c]pyridine-2-carboxamide] | 3.8 | 6.6 |  | 
O=C(NCc1ccc(S(=O)(=O)c2ccc(N3CCOCC3)cc2)cc1)c1cnc2[nH]ncc2c1 [N-[(4-{[4-(morpholin-4-yl)benzene]sulfonyl}phenyl)methyl]-1H-pyrazolo[3,4-b]pyridine-5-carboxamide] | 4.45 | 2.47 |  | 
CC(C)c1ccc(S(=O)(=O)c2ccc(CNC(=O)c3ccc4nccn4c3)cc2)cc1 [N-[(4-{[4-(propan-2-yl)benzene]sulfonyl}phenyl)methyl]imidazo[1,2-a]pyridine-6-carboxamide] | 14.6 | 6.66 |  | 
CC(C)c1ccc(S(=O)(=O)c2ccc(CNC(=O)c3cc4ccncc4s3)cc2)cc1 [N-[(4-{[4-(propan-2-yl)benzene]sulfonyl}phenyl)methyl]thieno[2,3-c]pyridine-2-carboxamide] |  |  | 6 | 7.1
CC(C)Oc1ccc(S(=O)(=O)c2ccc(CNC(=O)c3cnc4[nH]ncc4c3)cc2)cc1 [N-[(4-{[4-(propan-2-yloxy)benzene]sulfonyl}phenyl)methyl]-1H-pyrazolo[3,4-b]pyridine-5-carboxamide] | 8 | 6.6 |  | 
O=C(NCc1ccc(S(=O)(=O)c2ccc(C(F)(F)F)cc2)cc1)c1cnc2[nH]ncc2c1 [N-[(4-{[4-(trifluoromethyl)benzene]sulfonyl}phenyl)methyl]-1H-pyrazolo[3,4-b]pyridine-5-carboxamide] | 19.9 | 19.4 |  | 
